# Assay results as given in publication PMC10587169, “Tuning aminopolycarboxylate chelators for efficient complexation of trivalent actinides” (Scientific Reports, 2023).
# Experiment: Spectrophotometric titration
# Type: binding
# Excerpt: Changes in the optical absorption characteristics of Nd^3+ were monitored using a Cary 6000i UV/Vis–NIR Spectrometer (Agilent) using 1 cm semimicro quartz cuvettes (Starna) in double-beam mode, where the ^4I9/2 → ^4G5/2, ^2G7/2 transitions[34] were monitored between 560 and 605 nm with a 0.075 nm interval and 1.0 nm spectral bandwidth. Changes in the optical absorption characteristics of ^243Am^3+ and ^248Cm^3+ were monitored using a Flame-S-VIS–NIR-ES spectrometer coupled to a DH-2000-BAL dual-mode light source (Ocean Optics) with a single 1 cm semimicro quartz cuvette (Starna). The light source and spectrometer were optically coupled to the CUV sample (Ocean Optics) holder using 2 m fiberoptics (200 μm) and the parameters for acquisition were 0.369 nm interval and 1000 scans averaged with an integration time/scan 1.08 ms (total acquisition time ~ 1 s). The complexation of Am^3+ with the ligands was monitored in the 495–525 nm spectral region, looking at the ^7F0′ → ^5L6′ transition[23],[35]. For Cm^3+, ligand complexation was monitored in the 365–410 nm spectral region, looking at the ^8S7/2 → ^2Ji (i = {15}, {13,9}, {11,17}) manifold transitions[24],[25],[36]. Changes in aqueous p[H^+] were monitored throughout each titration step using a Gran-calibrated Orion Ross Semi-micro glass electrode. Baseline correction was applied to all datasets and was typically a simple linear subtraction. However, in the case of the ^248Cm/H4pypa-peg spectra, the tail end of the ligand absorption overlapped the hypersensitive Cm peaks. In this case the background correction was applied using a 5th-order empirical polynomial. Finally, the spectroscopic data was analyzed using the HypSpec software package[33],[37]. Full details of the titrand and titrant solutions for each titration are included in the Supplemental Information.
# The coordination of Nd^3+ by H4octapa and H4pypa-peg was also studied using spectroscopic methods. Figures 5A, B show the collected spectrophotometric signatures for H4octapa and H4pypa-peg, respectively.4 M^3++L^4-⇆ML^-β101=ML^-/[M^3+]L^4- 5 M^3++H^++L^4-⇆MHLaqβ111=MHLaq/[M^3+L^4-H^+]
# Optical absorption features of ^4I9/2 → ^4G5/2, ^2G7/2 transitions for Nd^3+ are perturbed due to the introduction of increasing quantities of complexants, resulting in characteristic red-shifted changes. In Fig. 5A a broad absorption band with λmax = 577 nm is distinctly different to the optical absorption of free Nd^3+ metal in Fig. 5B. The differences can be attributed to the nitrate complexation of Nd^3+ as the spectrophotometric titration with H4octapa was performed in 2.0 M (Na^+/H^+)NO3. […] The HypSpec interpretation of the Nd/pypa-peg titration points to the presence of three absorbing species: Nd^3+, NdHL(aq), and NdL^−. The conditional stability constants obtained spectroscopically are listed in Table 3, showing good agreement with the stability constants determined using potentiometry. The complex stability constants for structurally similar APC ligands found in the literature are also presented (H4pypa[18] and H4py4pa[57]).
# 2. Spectrophotometric titration parameters
# Nd3+: The titrand solution consisting of 1.980 mL of 7.57 mM Nd(ClO4)3 at p[H+] = 1.61 was blended with 1.965 mL of titrant solution containing 7.62 mM Nd3+, 18.57 mM H4octapa, […]
# Am3+: The titrand solution consisting of 0.842 mL of 0.810 mM Am(ClO4)3 at p[H+] =1.66 was blended with 0.811 mL of titrant solution containing 0.815 mM Am3+, 8.95 mM H4octapa, at p[H+] ≈ 5.0 – 6.0.
# Nd3+: The titrand solution consisting of 0.801 mL of 9.82 mM Nd(ClO4)3 at p[H+] = 1.61 was blended with 1.176 mL of titrant solution containing 9.91 mM Nd3+ and 24.58 mM H4pypa-peg in with p[H+] ≈ 3.0 – 4.0.
# Am3+: The titrand solution consisting of 0.806 mL of 0.791 mM Am(ClO4)3 at p[H+] = 1.41 was blended with 0.787 mL of titrant solution containing 0.801 mM Am3+ and 15.09 mM H4pypa-peg at p[H+] ≈ 5 – 6.
# Cm3+: The titrand solution consist ing of 0.809 mL of 1.00 mM Cm(ClO4)3 at p[H+] = 1.34 was […]
# [1] = spectrophotometrically determined in 2.0 M (Na+/H+)ClO4, 20 °C
smiles,measurement,setting,value
"O=C(O)CN(Cc1cc(-c2cn(CCOCCOCCO)nn2)cc(CN(CC(=O)O)Cc2cccc(C(=O)O)n2)n1)Cc1cccc(C(=O)O)n1 [H4pypa-peg, 6,6'-((((4-(1-(2-(2-(2-hydroxyethoxy)ethoxy)ethyl)-1H-1,2,3-triazol-4-yl)pyridine-2,6-diyl)bis–(methylene))bis–((carboxymethyl)azanediyl))bis–(methylene)) dipicolinic acid]","logK111, Nd",spectrophotometrically determined in 2.0 M (Na+/H+)ClO4,1.89 (6)
same,"logβ101 (ML), Nd",[1],18.15 (6)
same,"logβ111 (MHL), Nd",[1],20.04 (4)
"O=C(O)CN(CCN(CC(=O)O)CC(=O)O)CCN(CC(=O)O)CC(=O)O [H5dtpa, diethylenetriamine-N,N,N',N'',N''-pentaacetic acid]","logβ101 (ML), Nd",[1],20.23(2)
same,"logβ111 (MHL), Nd",[1],21.59(2)
"O=C(O)CN(CCN(CCN(CC(=O)O)CC(=O)O)CC(=O)O)CCN(CC(=O)O)CC(=O)O [H6ttha, triethylenetetraamine-N,N,N',N'',N''',N'''-hexaacetic acid]","logβ101 (ML), Nd",[1],21.90(7)
same,"logβ111 (MHL), Nd",[1],25.56(7)
"O=C(O)CN(CCN(CC(=O)O)Cc1cccc(C(=O)O)n1)Cc1cccc(C(=O)O)n1 [H4octapa, 6,6′-((ethane-1,2-diylbis–((carboxymethyl)azanediyl))bis–(methylene))dipicolinic acid]","logβ101 (ML), Nd",spectrophotometrically determined in 2.0 M (Na+/H+)NO3,18.15 (1)
